Measured values as given in patent US20050282159A1, “Rpob gene of streptomyces, primer specific to streptomyces, and identification method of streptomyces having rifampin resistance or sensitivity by using the same” (priority 2001, published 2005).

Experiments:
[1] = test system: 47 strains of Streptomyces references; test: rifampin-sensitive test on Bennet solid media (summary); assay type: cell-based; conditions: 25 ug/ml rifampin, 72 hr
Protocol: A total of 47 strains of Streptomyces references including 24 reference strains having AAC encoding Asp and 23 reference strains having TCG or TCC encoding Ser at the sequenced positions were used, and 306-bI rpoB nucleotide sequences of the […] strains are shown in SEQUENCE LISTING.
(§1) The 47 strains were respectively cultured at 28° C. for 72 hr in Bennet liquid media. The culture solution was then inoculated on Bennet solid media (yeast extract 1 g/L, Beef extract 1 g/L, Tryptone 2 g/L, Glycerol 10 g/L, Agar 15 g/L) containing 25 ug/ml rifampin, and after incubation for 72 hr, rifampin-resistance was tested.

[2] = test system: S. flavotricini KCCM 40520; conditions: TCG (TCC) genotype
Protocol: The primer sets of SEQ ID NOs: 1 and 2 were used to amplify rpoB genes of 60 strains, and nucleotides of the 352-bp products were analyzed with an automatic sequencer. SRPOF1 as a forward primer and SRPOR1 as a backward primer were used.

[3] = test system: S. bikiniensis KCTC 9172; test: rifampin-sensitive test on Bennet solid media; assay type: cell-based; set-up: key: “(+)” indicates a genotype with rifampin-resistance; “(−)” indicates a genotype with rifampin-susceptibility; conditions: TCG (TCC) genotype, 25 ug/ml rifampin, 72 hr
Protocol: as §1

[4] = test system: S. durhamensis KCTC 9723; test: rifampin-sensitive test on Bennet solid media; assay type: cell-based; set-up: key: “(+)” indicates a genotype with rifampin-resistance; “(−)” indicates a genotype with rifampin-susceptibility; conditions: AAC genotype, 25 ug/ml rifampin, 72 hr
Protocol: as §1

[5] = test system: S. capillispiralis KCTC 1719; test: rifampin-sensitive test on Bennet solid media; assay type: cell-based; set-up: key: “(+)” indicates a genotype with rifampin-resistance; “(−)” indicates a genotype with rifampin-susceptibility; conditions: AAC genotype, 25 ug/ml rifampin, 72 hr
Protocol: as §1

[6] = test system: S. bacillaris KCTC 9018; test: rifampin-sensitive test on Bennet solid media; assay type: cell-based; set-up: key: “(+)” indicates a genotype with rifampin-resistance; “(−)” indicates a genotype with rifampin-susceptibility; conditions: TCG (TCC) genotype, 25 ug/ml rifampin, 72 hr
Protocol: as §1

[7] = test system: S. acrimycini KCTC 9679; test: rifampin-sensitive test on Bennet solid media; assay type: cell-based; set-up: key: “(+)” indicates a genotype with rifampin-resistance; “(−)” indicates a genotype with rifampin-susceptibility; conditions: AAC genotype, 25 ug/ml rifampin, 72 hr
Protocol: as §1

[8] = test system: S. argenteolus KCTC 9695; test: rifampin-sensitive test on Bennet solid media; assay type: cell-based; set-up: key: “(+)” indicates a genotype with rifampin-resistance; “(−)” indicates a genotype with rifampin-susceptibility; conditions: TCG (TCC) genotype, 25 ug/ml rifampin, 72 hr
Protocol: as §1

[9] = test system: S. spectabilis KCTC 9218; test: rifampin-sensitive test on Bennet solid media; assay type: cell-based; set-up: key: “(+)” indicates a genotype with rifampin-resistance; “(−)” indicates a genotype with rifampin-susceptibility; conditions: AAC genotype, 25 ug/ml rifampin, 72 hr
Protocol: as §1

[10] = test system: S. achromogenes KCTC 1740; test: rifampin-sensitive test on Bennet solid media; assay type: cell-based; set-up: key: “(+)” indicates a genotype with rifampin-resistance; “(−)” indicates a genotype with rifampin-susceptibility; conditions: TCG (TCC) genotype, 25 ug/ml rifampin, 72 hr
Protocol: as §1

[11] = test system: S. catenulae KCTC 9223; test: rifampin-sensitive test on Bennet solid media; assay type: cell-based; set-up: key: “(+)” indicates a genotype with rifampin-resistance; “(−)” indicates a genotype with rifampin-susceptibility; conditions: TCG (TCC) genotype, 25 ug/ml rifampin, 72 hr
Protocol: as §1

[12] = test system: S. aculeolatus KCTC 9680; test: rifampin-sensitive test on Bennet solid media; assay type: cell-based; set-up: key: “(+)” indicates a genotype with rifampin-resistance; “(−)” indicates a genotype with rifampin-susceptibility; conditions: AAC genotype, 25 ug/ml rifampin, 72 hr
Protocol: as §1

[13] = test system: S. cacoi asoensis KCTC 9700; test: rifampin-sensitive test on Bennet solid media; assay type: cell-based; set-up: key: “(+)” indicates a genotype with rifampin-resistance; “(−)” indicates a genotype with rifampin-susceptibility; conditions: TCG (TCC) genotype, 25 ug/ml rifampin, 72 hr
Protocol: as §1

[14] = test system: S. chartreuses KCTC 9704; test: rifampin-sensitive test on Bennet solid media; assay type: cell-based; set-up: key: “(+)” indicates a genotype with rifampin-resistance; “(−)” indicates a genotype with rifampin-susceptibility; conditions: TCG (TCC) genotype, 25 ug/ml rifampin, 72 hr
Protocol: as §1

[15] = test system: S. sclerotialus KCTC 9065; test: rifampin-sensitive test on Bennet solid media; assay type: cell-based; set-up: key: “(+)” indicates a genotype with rifampin-resistance; “(−)” indicates a genotype with rifampin-susceptibility; conditions: AAC genotype, 25 ug/ml rifampin, 72 hr
Protocol: as §1

[16] = test system: S. albulus KCTC 9668; test: rifampin-sensitive test on Bennet solid media; assay type: cell-based; set-up: key: “(+)” indicates a genotype with rifampin-resistance; “(−)” indicates a genotype with rifampin-susceptibility; conditions: TCG (TCC) genotype, 25 ug/ml rifampin, 72 hr
Protocol: as §1

[17] = test system: S. carpinensis KCTC 9128; test: rifampin-sensitive test on Bennet solid media; assay type: cell-based; set-up: key: “(+)” indicates a genotype with rifampin-resistance; “(−)” indicates a genotype with rifampin-susceptibility; conditions: TCG (TCC) genotype, 25 ug/ml rifampin, 72 hr
Protocol: as §1

[18] = test system: S. avidinii KCTC 9757; test: rifampin-sensitive test on Bennet solid media; assay type: cell-based; set-up: key: “(+)” indicates a genotype with rifampin-resistance; “(−)” indicates a genotype with rifampin-susceptibility; conditions: AAC genotype, 25 ug/ml rifampin, 72 hr
Protocol: as §1

[19] = test system: S. actuosus KCTC 9112; test: rifampin-sensitive test on Bennet solid media; assay type: cell-based; set-up: key: “(+)” indicates a genotype with rifampin-resistance; “(−)” indicates a genotype with rifampin-susceptibility; conditions: TCG (TCC) genotype, 25 ug/ml rifampin, 72 hr
Protocol: as §1

[20] = test system: S. alanosinicus KCTC 9683; test: rifampin-sensitive test on Bennet solid media; assay type: cell-based; set-up: key: “(+)” indicates a genotype with rifampin-resistance; “(−)” indicates a genotype with rifampin-susceptibility; conditions: AAC genotype, 25 ug/ml rifampin, 72 hr
Protocol: as §1

[21] = test system: S. caseius KCCM 40740; test: rifampin genotype by rpoB nucleotide sequence analysis; conditions: TCG (TCC) genotype
Protocol: (§2) The primer sets of SEQ ID NOs: 1 and 2 were used to amplify rpoB genes of 60 strains, and nucleotides of the […] products were analyzed with an automatic sequencer. SRPOF1 as a forward primer and SRPOR1 as a backward primer were used.

[22] = test system: S. anabdii KCTC 9687; test: as above; conditions: TCG (TCC) genotype
Protocol: as §2

[23] = test system: S. coralus KCCM 40642; test: as above; conditions: TCG (TCC) genotype
Protocol: as §2

[24] = test system: S. anthocyanicus KCTC 9755; test: as above; conditions: AAC genotype
Protocol: as §2
(§3) FIG. 8 is an electropherogram obtained by amplifying 306-bp rpoB gene fragment with the SRPOF1 and SRPOR1 primer set and automatically sequencing with an SRPOF1 primer.

[25] = test system: S. humidus KCCM 40647; test: as above
Protocol: as §2, §3

[26] = test system: S. atroolvaceous KCTC 9017; test: as above
Protocol: as §2, §3

With `CO[C@H]1/C=C/O[C@@]2(C)Oc3c(C)c(O)c4c(O)c(c(/C=N/N5CCN(C)CC5)c(O)c4c3C2=O)NC(=O)/C(C)=C\C=C\[C@H](C)[C@H](O)[C@@H](C)[C@@H](O)[C@@H](C)[C@H](OC(C)=O)[C@@H]1C` [rifampin] the “rifampin resistance or sensitivity of the strains” value ([1]; all 24 strains having AAC genotypes) was “rifampin-resistant strains”, the “rifampin resistance or sensitivity of the strains” value ([1]; the 23 strains having TCG or TCC genotypes) was “rifampin-sensitive strains” and the “genotype (rifampin-resistant or -sensitive strain)” value [2] was “−”. The “genotype (rifampin-resistance or susceptibility)” value [3] was “−”, the “genotype (rifampin-resistance or susceptibility)” value [4] was “+” and the “genotype (rifampin-resistance or susceptibility)” value [5] was “+”. For the same molecule, the “genotype (rifampin-resistance or susceptibility)” value [6] was “−”, the “genotype (rifampin-resistance or susceptibility)” value [7] was “+” and the “genotype (rifampin-resistance or susceptibility)” value [8] was “−”. For the same molecule, the “genotype (rifampin-resistance or susceptibility)” value [9] was “+”, the “genotype (rifampin-resistance or susceptibility)” value [10] was “−” and the “genotype (rifampin-resistance or susceptibility)” value [11] was “−”. The “genotype (rifampin-resistance or susceptibility)” value [12] was “+”, the “genotype (rifampin-resistance or susceptibility)” value [13] was “−” and the “genotype (rifampin-resistance or susceptibility)” value [14] was “−”. For the same molecule, the “genotype (rifampin-resistance or susceptibility)” value [15] was “+”, the “genotype (rifampin-resistance or susceptibility)” value [16] was “−” and the “genotype (rifampin-resistance or susceptibility)” value [17] was “−”. For the same molecule, the “genotype (rifampin-resistance or susceptibility)” value [18] was “+”, the “genotype (rifampin-resistance or susceptibility)” value [19] was “−” and the “genotype (rifampin-resistance or susceptibility)” value [20] was “+”. The “genotype (rifampin-resistant or -sensitive strain)” value [21] was “−”, the “genotype (rifampin-resistant or -sensitive strain)” value [22] was “−” and the “genotype (rifampin-resistant or -sensitive strain)” value [23] was “−”. The “rifampin resistance or sensitivity of the strain” value ([24]; S. anthocyanicus (KCTC 9755), identical to the known sensitivity results) was “rifampin-resistant strain”, the “genotype (rifampin-resistant or -sensitive strain)” value ([24]; S. anthocyanicus KCTC 9755) was “+” and the “rifampin resistance or sensitivity of the strain” value ([25]; S. humidus (KCCM 40647), TCG genotype, identical to the known sensitivity results) was “rifampin-sensitive strains”. The “genotype (rifampin-resistant or -sensitive strain)” value ([25]; S. humidus KCCM 40647, TCG (TCC) genotype) was “−”, the “rifampin resistance or sensitivity of the strain” value ([26]; S. atroolvaceous (KCTC9017), TCG genotype, identical to the known sensitivity results) was “rifampin-sensitive strains” and the “genotype (rifampin-resistant or -sensitive strain)” value ([26]; S. atroolvaceous KCTC 9017, TCG (TCC) genotype) was “−”.
